Measurements reported in publication PMC9942528 (Journal of medicinal chemistry, 2022).
Like-named read-outs stand apart in the source and are kept apart here. Marks after values point to notes of the source that are not given here.

Experiments:
[1] = Stability assay in rat liver microsomes; format: in vitro ADME; details: for microsomal CLint at 2 h, 10 µM: pH 7.4; for less stable than (R)- and (S)-11b, (R)- and (S)-11c, and 2: recovery after 30 min; for less stable than (R)- and (S)-11b, (R)- and (S)-11c, and 2 / Metabolic stability, % after 30 min incubation: rat microsomes; for Metabolic stability, % after 30 min incubation: 10 μM, parent remaining
[2] = test system: mouse microglial N9 cells; experiment: Cytotoxicity, MTT assay in N9 cells; format: cell-based
murine N9 cells = experiment: ELISA of TNF-α and IL-1β in N9 cells, resting and LPS-stimulated; format: cell-based, mouse; details: for release of IL-1β and TNF-α under resting conditions: 0.5 to 5 μM; for effect on LPS-induced cytokines (IL-1β, TNF-α) production: LPS 100 ng/mL 24 h
human FPR2 [3] = biological target: T1, human FPR2 (Homo sapiens, UniProt P25090); experiment: Ca2+ mobilization; details: for increase in FPR2 potency as compared to 2: ratio of EC50 values
T1 sequence (P25090 1-351): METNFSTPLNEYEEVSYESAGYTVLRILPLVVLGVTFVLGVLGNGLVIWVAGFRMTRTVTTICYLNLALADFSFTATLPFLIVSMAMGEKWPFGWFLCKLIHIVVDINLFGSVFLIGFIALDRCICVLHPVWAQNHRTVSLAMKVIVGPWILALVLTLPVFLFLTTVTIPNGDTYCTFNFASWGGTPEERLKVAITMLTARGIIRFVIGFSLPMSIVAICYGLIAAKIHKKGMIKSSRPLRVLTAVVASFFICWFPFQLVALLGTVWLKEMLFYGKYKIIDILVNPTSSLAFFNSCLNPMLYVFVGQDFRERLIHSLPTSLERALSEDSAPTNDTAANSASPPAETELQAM

[4] = test system: rat primary microglial cells; experiment: Nitric oxide; format: cell-based; details: for effect on LPS-induced NO production: 0.1 μM, LPS 100 ng/mL 24 h; for effect on NO production under resting conditions: rat primary microglial cells
caspase-3 = experiment: Caspase-3 activity in rat primary microglial cells; format: cell-based; details: 0.1 μM, LPS 100 ng/mL 24 h
[5] = test system: rat primary microglial cells; experiment: LDH release assay in rat primary microglial cells; details: for effect on LPS-induced cell death (LDH release): 0.1 μM, LPS 100 ng/mL 24 h; for effect on cell viability (LDH) under resting conditions: rat primary microglial cells
human FPR2 [6] = biological target: T1, human FPR2; details: functional antagonism vs WKYMVM
[7] = In vivo pharmacokinetics in mice; details: for Tmax: male, CD-1, mouse, plasma
[8] = rat microsomes; ref [25]; cited from earlier work
[9] = test system: rat primary microglial cells; details: rat primary microglial cultures stimulated with LPS; ref [25]; cited from earlier work
[10] = hCMEC/D3 cells; ref [25]; cited from earlier work
[11] = test system: mouse hippocampal organotypic cultures; details: OHCs stimulated with LPS, pre-treatment; ref [27]; cited from earlier work
APP/PS1 mouse model = details: systemic administration, ref [28]; cited from earlier work
[12] = rat, rat liver microsomes, pH 7.4, half-life

N#Cc1ccc(C[C@@H](NC(=O)Nc2ccc(F)cc2)C(=O)NC2CCCCNC2=O)cc1 (stereo partly drawn) [(R)-11a, (2R)-3-(4-Cyanophenyl)-2-(3-(4-fluorophenyl)ureido)-N-(2-oxoazepan-3-yl)propenamide]
microsomal CLint at 2 h, 10 µM ([1]; rat, rat liver microsomes): 5.5 µL/min/mg
half-life at 2 h, 10 µM [1, 12]: 120 min
cytotoxic effect in the MTT test [2]: did not exert any cytotoxic effects

N#Cc1ccc(C[C@@H](NC(=O)Nc2ccc(F)cc2)C(=O)N2CCCCC2)cc1 [(R)-11b, (R)-1-(3-(4-Cyanophenyl)-1-oxo-1-(piperidin-1-yl)propan-2-yl)-3-(4-fluorophenyl)urea]
cytotoxic effect in the MTT test [2]: did not exert any cytotoxic effects

N#Cc1ccc(C[C@@H](NC(=O)Nc2ccc(F)cc2)C(=O)N2CCCC2)cc1 [(R)-11c, (R)-1-(3-(4-Cyanophenyl)-1-oxo-1-(pyrrolidin-1-yl)propan-2-yl)-3-(4-fluorophenyl)urea]
cytotoxic effect in the MTT test [2]: did not exert any cytotoxic effects

N#Cc1ccc(C[C@@H](NC(=O)Nc2ccc(F)cc2)C(=O)N2Cc3ccccc3C2)cc1 [(R)-11d, (R)-1-(3-(4-Cyanophenyl)-1-(isoindolin-2-yl)-1-oxopropan-2-yl)-3-(4-fluorophenyl)urea]
less stable than (R)- and (S)-11b, (R)- and (S)-11c, and 2 [1]: 2–3 fold

N#Cc1ccc(C[C@@H](NC(=O)Nc2ccc(F)cc2)C(=O)N2CCc3ccccc32)cc1 [(R)-11e, (R)-1-(3-(4-Cyanophenyl)-1-(indolin-1-yl)-1-oxopropan-2-yl)-3-(4-fluorophenyl)urea]
less stable than (R)- and (S)-11b, (R)- and (S)-11c, and 2 [1]: 2–3 fold

N#Cc1ccc(C[C@@H](NC(=O)Nc2ccc(F)cc2)C(=O)N2CCc3ccccc3C2)cc1 [(R)-11f, (R)-1-(3-(4-Cyanophenyl)-1-(3,4-dihydroisoquinolin-2(1H)-yl)-1oxopropan-2-yl)-3-(4-fluorophenyl)urea]
less stable than (R)- and (S)-11b, (R)- and (S)-11c, and 2 [1]: 2–3 fold

N#Cc1ccc(C[C@@H](NC(=O)Nc2ccc(F)cc2)C(=O)N2CCCc3ccccc32)cc1 [(R)-11g, (R)-1-(3-(4-Cyanophenyl)-1-(3,4-dihydroquinolin-1(2H)-yl)-1-oxopropan-2-yl)-3-(4-fluorophenyl)urea]
less stable than (R)- and (S)-11b, (R)- and (S)-11c, and 2 [1]: 2–3 fold

N#Cc1ccc(C[C@@H](NC(=O)Nc2ccc(F)cc2)C(=O)N2CCc3cc(F)ccc32)cc1 [(R)-11i, (R)-1-(3-(4-Cyanophenyl)-1-(5-fluoroindolin-1-yl)-1-oxopropan-2-yl)-3-(4-fluorophenyl)urea]
Metabolic stability, % after 30 min incubation [1]: 58%
microsomal CLint at 2 h, 10 µM ([1]; rat, rat liver microsomes): 6.4 µL/min/mg
half-life at 10 μM [1, 12]: 108 min

N#Cc1ccc(C[C@@H](NC(=O)Nc2ccc(F)cc2)C(=O)N2CCc3ccc(F)cc32)cc1 [(R)-11l, (R)-1-(3-(4-Cyanophenyl)-1-(6-fluoroindolin-1-yl)-1-oxopropan-2-yl)-3-(4-fluorophenyl)urea]
microsomal CLint at 2 h, 10 µM ([1]; rat, rat liver microsomes): 23.3 µL/min/mg
half-life at 2 h, 10 µM [1, 12]: 30 min

N#Cc1ccc(C[C@H](NC(=O)Nc2ccc(F)cc2)C(=O)NC2CCCCNC2=O)cc1 (stereo partly drawn) [(S)-11a, (2S)-3-(4-Cyanophenyl)-2-(3-(4-fluorophenyl)ureido)-N-(2-oxoazepan-3-yl)propenamide]
microsomal CLint at 2 h, 10 µM ([1]; rat, rat liver microsomes): 4.4 µL/min/mg
half-life at 2 h, 10 µM [1, 12]: 157 min
cytotoxic effect in the MTT test [2]: did not exert any cytotoxic effects
release of IL-1β and TNF-α under resting conditions (murine N9 cells): did not induce the release
effect on LPS-induced cytokines (IL-1β, TNF-α) production (murine N9 cells): effectively decrease LPS-induced cytokines production
increase in FPR2 potency as compared to 2 (human FPR2 [3]): 20 fold

N#Cc1ccc(C[C@H](NC(=O)Nc2ccc(F)cc2)C(=O)N2CCCCC2)cc1 [(S)-11b, (S)-1-(3-(4-Cyanophenyl)-1-oxo-1-(piperidin-1-yl)propan-2-yl)-3-(4-fluorophenyl)urea]
Metabolic stability, % after 30 min incubation [1]: 34%
microsomal CLint at 2 h, 10 µM ([1]; rat, rat liver microsomes): 13.9 µL/min/mg
cytotoxic effect in the MTT test [2]: did not exert any cytotoxic effects
increase in FPR2 potency as compared to 2 (human FPR2 [3]): 4 fold

N#Cc1ccc(C[C@H](NC(=O)Nc2ccc(F)cc2)C(=O)N2CCCC2)cc1 [(S)-11c, (S)-1-(3-(4-Cyanophenyl)-1-oxo-1-(pyrrolidin-1-yl)propan-2-yl)-3-(4-fluorophenyl)urea]
Metabolic stability, % after 30 min incubation [1]: 65%
microsomal CLint at 2 h, 10 µM ([1]; rat, rat liver microsomes): 6.2 µL/min/mg
cytotoxic effect in the MTT test [2]: did not exert any cytotoxic effects
increase in FPR2 potency as compared to 2 (human FPR2 [3]): equipotent

N#Cc1ccc(C[C@H](NC(=O)Nc2ccc(F)cc2)C(=O)N2Cc3ccccc3C2)cc1 [(S)-11d, (S)-1-(3-(4-Cyanophenyl)-1-(isoindolin-2-yl)-1-oxopropan-2-yl)-3-(4-fluorophenyl)urea]
microsomal CLint at 2 h, 10 µM ([1]; rat, rat liver microsomes): 24.7 µL/min/mg
half-life at 2 h, 10 µM [1, 12]: 28 min
less stable than (R)- and (S)-11b, (R)- and (S)-11c, and 2 [1]: 2–3 fold

N#Cc1ccc(C[C@H](NC(=O)Nc2ccc(F)cc2)C(=O)N2CCc3ccccc32)cc1 [(S)-11e, (S)-1-(3-(4-Cyanophenyl)-1-(indolin-1-yl)-1-oxopropan-2-yl)-3-(4-fluorophenyl)urea]
microsomal CLint at 2 h, 10 µM ([1]; rat, rat liver microsomes): 33 µL/min/mg
half-life at 2 h, 10 µM [1, 12]: 21 min
less stable than (R)- and (S)-11b, (R)- and (S)-11c, and 2 [1]: 2–3 fold
release of IL-1β and TNF-α under resting conditions (murine N9 cells): did not induce the release
effect on LPS-induced cytokines (IL-1β, TNF-α) production (murine N9 cells): effectively decrease LPS-induced cytokines production
effect on LPS-induced NO production [4]: effectively blocked
effect on NO production under resting conditions [4]: did not induce any effect
effect on LPS-induced activation of caspase-3 (caspase-3): significantly reduced this activation
effect on LPS-induced cell death (LDH release) [5]: effectively blocked LPS-induced cell death
effect on cell viability (LDH) under resting conditions [5]: did not induce any effect

N#Cc1ccc(C[C@H](NC(=O)Nc2ccc(F)cc2)C(=O)N2CCc3ccccc3C2)cc1 [(S)-11f, (S)-1-(3-(4-Cyanophenyl)-1-(3,4-dihydroisoquinolin-2(1H)-yl)-1oxopropan-2-yl)-3-(4-fluorophenyl)urea]
less stable than (R)- and (S)-11b, (R)- and (S)-11c, and 2 [1]: 2–3 fold
IC50 at FPR2, range in words (human FPR2 [6]): nanomolar range

N#Cc1ccc(C[C@H](NC(=O)Nc2ccc(F)cc2)C(=O)N2CCCc3ccccc32)cc1 [(S)-11g, (S)-1-(3-(4-Cyanophenyl)-1-(3,4-dihydroquinolin-1(2H)-yl)-1-oxopropan-2-yl)-3-(4-fluorophenyl)urea]
less stable than (R)- and (S)-11b, (R)- and (S)-11c, and 2 [1]: 2–3 fold

N#Cc1ccc(C[C@H](NC(=O)Nc2ccc(F)cc2)C(=O)N2CCC(F)(F)CC2)cc1 [(S)-11h, (S)-1-(3-(4-Cyanophenyl)-1-(4,4-difluoropiperidin-1-yl)-1-oxopropan-2-yl)-3-(4-fluorophenyl)urea]
cytotoxic effect in the MTT test [2]: did not exert any cytotoxic effects
loss of FPR2 potency versus the non-substituted counterpart (human FPR2 [3]; 11h vs 11b): 20 fold

N#Cc1ccc(C[C@H](NC(=O)Nc2ccc(F)cc2)C(=O)N2Cc3ccc(F)cc3C2)cc1 [(S)-11j, (S)-1-(3-(4-Cyanophenyl)-1-(5-fluoroisoindolin-2-yl)-1-oxopropan-2-yl)-3-(4-fluorophenyl)urea]
microsomal CLint at 2 h, 10 µM ([1]; rat, rat liver microsomes): 4.1 µL/min/mg

N#Cc1ccc(C[C@H](NC(=O)Nc2ccc(F)cc2)C(=O)N2CCc3ccc(F)cc32)cc1 [(S)-11l, (S)-1-(3-(4-Cyanophenyl)-1-(6-fluoroindolin-1-yl)-1-oxopropan-2-yl)-3-(4-fluorophenyl)urea]
Metabolic stability, % after 30 min incubation [1]: 33%
release of IL-1β and TNF-α under resting conditions (murine N9 cells): did not induce the release
effect on LPS-induced cytokines (IL-1β, TNF-α) production (murine N9 cells): effectively decrease LPS-induced cytokines production
effect on LPS-induced NO production [4]: effectively blocked
effect on NO production under resting conditions [4]: did not induce any effect
effect on LPS-induced activation of caspase-3 (caspase-3): significantly reduced this activation
Tmax ([7]; ip, 10 mg/kg): 30 min
Tmax ([7]; iv, 1 mg/kg): 5 min
blood-brain barrier permeation ([7]; mice, i.p. 10 mg/kg): able to permeate the blood–brain barrier and to accumulate in the brain
time until which the compound was detectable in plasma ([7]; mice, i.v. 1 mg/kg): 4 h
effect on LPS-induced cell death (LDH release) [5]: effectively blocked LPS-induced cell death
effect on cell viability (LDH) under resting conditions [5]: did not induce any effect

N#Cc1ccc(C[C@H](NC(=O)Nc2ccc(F)cc2)C(=O)NCC2(c3ccc(F)c(Cl)c3)CC2)cc1 [Compound 2]
Metabolic stability, % after 30 min incubation [8]: 33^b %
release of IL-1β and TNF-α [9]: reduces the release
efflux ratio ER (BA/AB) [10]: 2.6
release of TNF-α and IL-1β [11]: attenuated the release of TNF-α and IL-1β
neuronal survival, microglial cell density and plaque load (APP/PS1 mouse model): improved neuronal survival and decreased microglial cell density and plaque load
selectivity FPR2 versus FPR1 (human FPR2 [3]; EC50 FPR1 vs EC50 FPR2): almost equipotent at both receptors
